By half-life is commonly meant how long it takes for the measured level to halve. A low value points to rapid decline.

This is an account of results in patent US4866083A, “2-t-butyl-3 alkyl-5-(m-hydroxyphenyl)-1,3-oxazolidines having mydriatic effect” (University of Iowa Research Foundation, priority 1987, dated 1989).

A short description of data set [1]: Distribution coefficient (log DC). The data set is classed as physicochemical. To be noted: read-out: log DC (Dist. Coeff.).
The test system of the next data set is rabbit eye. Briefly: Mydriatic experiments, pupil diameter in the rabbit eye. The data set is classed as in vivo, New Zealand Rabbit. The procedure: The right eye of a normal adult New Zealand Rabbit (3-4 months) was used to measure mydriasis. A flood of diffuse light was placed at a fixed distance from the rabbit eye so that the initial pupil diameter prior to administering eye drops was about 3 mm. Changes in pupil diameter were measured from photographs taken with a 35 mm single lens reflex camera equipped with a close-up lens. Pupil diameters were measured at time 0 through about 5 hours. A dosing volume of 10 μl was administered to the right eye of a group of eight rabbits. A period of at least three days was allowed between instillations of each formulation.

Data set [2] in a line: Hydrolysis in buffered aqueous solution at 35° C. It counts as physicochemical. The following applies: pH's between 1-7.5. The procedure: A series of experiments were conducted at 35° C. to determine the apparent first order hydrolysis rate constant for phenylephrine oxazolidine at […]. The progress of hydrolysis of the prodrug was followed by measuring the production of pivaldehyde subsequently trapped with thiosemicarbazide (pH<4) or semicarbazide (pH 4-7.5). The resulting formation of the carbazone derivative was followed using Uv spectroscopy at 235 and 265 nm (the spectroscopy was a 8450A UV/VIS Hewlett-Packard, Chicago, Ill.). The prodrug was dissolved in either pH 1, 2, 3, 4, 5, 6, 7 or 7.5 buffered aqueous solutions. The buffers used were hydrochloric acid, formate, acetate and phosphate solutions. The carbonyl trapping reagent was included in the buffer solutions at a concentration of 3.1×10(-3) M. The initial concentration of oxazolidine prodrug was about 1.8×10(-4) M. A volume of 3 ml was used for the reaction which was monitored directly in the absorbance cell. […] The concentration of carbazone was calculated by referring to a standard curve.

The nature of data set [3]: Stability in aqueous solutions. It counts as physicochemical.
The conditions of data set [4]: topical ocular; some individuals; cited from earlier work.

On to `CN1C[C@@H](c2cccc(O)c2)OC1C(C)(C)C` (single isomer, unassigned) [phenylephrine oxazolidine, 2-t-butyl-3-methyl-5-(m-hydroxyphenyl)-1,3-oxazolidine], for which, in data set [1], the logD was found to be 1.383 ± 0.013. The “potency relative to the aqueous solution of phenylephrine HCl” value in the data set on rabbit eye (based upon pupillary diameter, versus 10% viscous preparation of phenylephrine HCl, FIG. 2) is “approximately 10 times”. Further, the “mydriasis compared with phenylephrine HCl” value with rabbit eye (molar equivalent concentration to 10% oil suspension of phenylephrine HCl, 10 μl to right eye, FIG. 1) was “significantly greater mydriasis”. In addition, the half-life in data set [2] lay in the range of 5 to 12 min. In addition, in data set [3], the “stability in aqueous solutions” value was “not particularly stable in aqueous solutions”.
As for `CNC[C@H](O)c1cccc(O)c1` [phenylephrine, 3-hydroxy-α-[(methylamino)methyl]-benzyl alcohol], the side effects entry in data set [4] is “hypertension, syncope, and even in some cases to myocardial infarction, leading to death”.
